# Test results: patent publication US7998972B2, “1H-imidazo[4,5-c]quinoline derivatives in the treatment of protein kinase dependent diseases” (Novartis AG, priority 2002, dated 2011)
# Where a name gives a salt, the structure may show the parent alone.
row,melting point [°C],SMILES
1,183 to 192,"Clc1ccc2ncc3nc(Br)n(-c4ccccc4Cl)c3c2c1 [Example 82, 2-Bromo-8-chloro-1-(2-chloro-phenyl)-1H-imidazo[4,5-c]quinoline]"
2,262 to 263,"Nc1nc2ccc(Cl)cc2c2c1ncn2-c1ccccc1Cl [Example 73, 8-Chloro-1-(2-chloro-phenyl)-1H-imidazo[4,5c]-quinolin-4-ylamine]"
3,210 to 212,"CNc1nc2ccc(Cl)cc2c2c1ncn2-c1ccccc1Cl [Example 76, [8-Chloro-1-(2-chloro-phenyl)-1H-imidazo[4,5-c]quinolin-4-yl]-methyl-amine]"
4,247 to 250,"[O-][n+]1cc2ncn(-c3ccccc3Cl)c2c2cc(Cl)ccc21 [Example 71, 8-Chloro-1-(2-chloro-phenyl)-1H-imidazo[4,5-c]quinoline 5-oxide]"
5,194 to 200,"Clc1ccc2nc(Cl)c3ncn(-c4ccccc4Cl)c3c2c1 [Example 75, 4,8-Dichloro-1-(2-chloro-phenyl)-1H-imidazo[4,5-c]quinoline]"
6,202 to 205,"COc1ccc2ncc3ncn(-c4ccccc4Cl)c3c2c1 [Example 44, 1-(2-Chloro-phenyl)-8-methoxy-1H-imidazo[4,5-c]quinoline]"
7,240 to 242,"Clc1ccc2ncc3ncn(-c4ccccc4)c3c2c1 [Example 23, 8-Chloro-1-phenyl-1H-imidazo[4,5-c]quinoline]"
8,177.5,"Cc1nc2cnc3ccc(Cl)cc3c2n1-c1ccccc1Cl [Example 136, 8-Chloro-1-(2-chloro-phenyl)-2-methyl-1H-imidazo[4,5-c]quinoline]"
9,162 to 163,"Fc1ccc2ncc3ncn(-c4ccccc4F)c3c2c1 [Example 19, 8-Fluoro-1-(2-fluoro-phenyl)-1H-imidazo[4,5-c]quinoline]"

# The remaining lines, values behind:
row,SMILES,melting point [°C]
1,"N/C(Cc1ccccc1-n1cnc2cnc3ccc(-c4ccccc4)cc3c21)=N/O [Example 68, N-Hydroxy-2-[2-(8-phenyl-imidazo[4,5-c]quinolin-1-yl)-phenyl]-acetamidine]",253 to 254
2,"NC(=O)c1nc2cnc3ccc(Cl)cc3c2n1-c1ccccc1Cl [Example 83, 8-Chloro-1-(2-chloro-phenyl)-1H-imidazo[4,5-c]quinoline-2-carboxylic acid amide]",194 to 195
3,"NCc1cccc(-n2cnc3cnc4ccc(Cl)cc4c32)c1 [Example 42, 3-(8-Chloro-imidazo[4,5-c]quinolin-1-yl)-benzylamine]",148 to 149
4,"N=C(N)c1ccccc1-n1cnc2cnc3ccc(-c4ccccc4)cc3c21 [Example 69, 2-(8-Phenyl-imidazo-4,5-quinolin-1-yl)-benzamidine]",284 to 285
5,"NCCc1ccc(-n2cnc3cnc4ccc(Cl)cc4c32)cc1 [Example 43, 2-[4-(8-Chloro-imidazo[4,5-c]quinolin-1-yl)-phenyl]-ethylamine]",140 to 141
6,"Brc1ccccc1-n1cnc2cnc3ccc(-c4ccccc4)cc3c21 [Example 53, 1-(2-Bromo-phenyl)-8-Phenyl-1H-imidazo[4,5-c]quinoline]",128 to 129
7,"O=C(Nc1nc2ccc(Cl)cc2c2c1ncn2-c1ccccc1Cl)c1ccccc1 [Example 72, N-[8-Chloro-1-(2-chloro-phenyl)-1H-imidazo[4,5-c]quinolin-4-yl]-benzamide]",255 to 258
8,"Fc1ccc(-n2cnc3cnc4cc(Cl)ccc4c32)cc1 [Example 15, 7-Chloro-1-(4-fluoro-phenyl)-1H-imidazo[4,5-c]quinoline]",273 to 274
9,"N/C(=N\O)c1nc2cnc3ccc(Cl)cc3c2n1-c1ccccc1Cl [Example 86, 8-Chloro-1-(2-chloro-phenyl)-N-hydroxy-1H-imidazo[4,5-c]quinoline-2-carboxamidine]",265 to 267
10,"N/C(Cc1nc2cnc3ccc(Cl)cc3c2n1-c1ccccc1Cl)=N/O (as salt: sodium) [Example 87, 2-[8-Chloro-1-(2-chloro-phenyl)-1H-imidazo[4,5-c]quinolin-2-yl]-N-hydroxy-acetamidine]",114
